# Laboratory results as given in publication PMC3684613 (PLoS ONE, 2013).
# Where two headings read alike, the source gives them in different places.
# Columns and labels:
# P. falciparum 3D7 [1] = test system: P. falciparum 3D7; set-up: method as in ChEMBL-NTD; conditions: ref ChEMBL-NTD, cited from earlier work
# P. falciparum 3D7 [2] = assay: DAPI stain fluorescent high content imaging assay, P. falciparum 3D7 (confirmatory screen, Avery); conditions: Plasmodium falciparum; for EC50: 3D7, read-out: EC50_nM; for inhibition of growth at 5 µM: 3D7, read-out: percent_inh @ 5 uM; for inhibition of growth at 2 µM: 3D7, read-out: percent_inh @ 2 uM
# [3] = original screening data, source (GSK, GNF, StJude), several values separated by ';' in order of sources
# [4] = values follow the order of the source (GNF; GSK; StJude)
Structure (SMILES),EC50 (P. falciparum 3D7 [2]),inhibition of growth at 5 µM (P. falciparum 3D7 [2]),also measured
Oc1c(CN2CCN(c3ccccc3F)CC2)cc(Br)c2cccnc12 [MMV000760],,91%,EC50 (P. falciparum 3D7 [1]; [3]): 3.76 µM
OC(CNCc1ccccc1)Cn1c2ccccc2c2ccccc21 (centres unmarked) [MMV000839],1.08 µM,95%,EC50 (P. falciparum 3D7 [1]; source StJude (SJ ids)): 3.76 µM
OC(CNC1CCCC1)Cn1c2ccccc2c2ccccc21 (centres unmarked) [MMV000848],0.66 µM,97%,EC50 (P. falciparum 3D7 [1]; [3]): 1.08 µM
Cc1ccc(NC(=O)Nc2cccc(Cl)c2)cc1F [MMV000911],,52%,EC50 (P. falciparum 3D7 [1]; [3]): 15 µM
COc1ccc2c(c1OC)C(=O)N1c3ccccc3N=C(c3ccc(C)cc3)CC21 (centres unmarked) [MMV000917],1.24 µM,93%,EC50 (P. falciparum 3D7 [1]; source StJude (SJ ids)): 2.53 µM
O=C1CC(O)(C(F)(F)C(F)(F)F)Oc2ccccc21 (centres unmarked) [MMV000972],,95%,EC50 (P. falciparum 3D7 [1]; [3]): 2.57 µM
CCOc1cccc2sc(N(Cc3cccnc3)C(=O)C3CCCCC3)nc12 [MMV001230],,94%,EC50 (P. falciparum 3D7 [1]; source StJude): 3.04 µM
COc1ccc2sc(N(Cc3cccnc3)C(=O)c3ccc(C#N)cc3)nc2c1 [MMV001239],,,EC50 (P. falciparum 3D7 [1]; [4]): 15 µM; inhibition of growth at 2 µM (P. falciparum 3D7 [2]): 89%
COc1ccc(C)c2sc(N(Cc3cccnc3)C(=O)c3ccc(C#N)cc3)nc12 [MMV001241],,91%,EC50 (P. falciparum 3D7 [1]; source StJude (SJ ids)): 15 µM
O=C(Nc1ccc(Br)cc1)Nc1cccc(Cl)c1 [MMV001318],,94%,EC50 (P. falciparum 3D7 [1]; [3]): 15 µM
CC1CC(C)CN(C(=O)c2ccc(Cl)cc2Cl)C1 (centres unmarked) [MMV001344],0.756 µM,95%,EC50 (P. falciparum 3D7 [1]; [3]): 1.32 µM
CCN(CC)CCNc1ccnc2cc(Cl)ccc12 [MMV006087],0.0581 µM,,EC50 (P. falciparum 3D7 [1]; source GNF (GNF-Pf id)): 0.00716 µM
Cc1cc(NCCN2CCCCC2)c2ccc3ccccc3c2n1 [MMV006203],0.3 µM,99%,EC50 (P. falciparum 3D7 [1]; source GNF (GNF-Pf id)): 0.0441 µM
CCOC(=O)c1cnc2c(C)cccc2c1Nc1ccc(C(C)=O)cc1 [MMV006250],0.314 µM,94%,EC50 (P. falciparum 3D7 [1]; source GNF (GNF-Pf ids)): 0.119 µM
CCc1c(C)c(=N)c2ccccc2n1C [MMV006278],0.378 µM,76%,EC50 (P. falciparum 3D7 [1]; source GNF (GNF-Pf id)): 0.701 µM
O=C1c2ccccc2C2=Nc3ccccc3SC(c3cccc(F)c3)C12 (centres unmarked) [MMV006389],0.415 µM,94%,EC50 (P. falciparum 3D7 [1]; source GNF (GNF-Pf ids)): 0.0867 µM
CCCN(CCC)CC(O)COc1ccccc1C(=O)Nc1ccccc1 (centres unmarked) [MMV006455],0.196 µM,98%,EC50 (P. falciparum 3D7 [1]; source GNF (GNF-Pf id)): 0.365 µM; EC50 (P. falciparum 3D7 [1]; source GSK (TCMDC id)): 0.799 µM
CCOC(=O)c1ccc2nc(-c3ccccc3)cc(O)c2c1 [MMV006457],0.118 µM,96%,EC50 (P. falciparum 3D7 [1]; source GNF (GNF-Pf id)): 0.549 µM
Cc1cc(C)c2c(c1)OCN(Cc1ccccc1Cl)C2 [MMV006558],0.268 µM,98%,EC50 (P. falciparum 3D7 [1]; source GNF (GNF-Pf id)): 0.192 µM
CCOC(=O)C1=CN(C)C=C(C(=O)OCC)C1c1cc(Br)c(OCC)c(OC)c1 [MMV006656],0.518 µM,97%,EC50 (P. falciparum 3D7 [1]; [4]): 0.913 µM
Cc1cc(=O)oc2c1ccc1oc(C(=O)c3ccccc3)c(C)c12 [MMV006753],,94%,EC50 (P. falciparum 3D7 [1]; source GNF (GNF-Pf ids)): 0.441 µM

# Now from value to compound, other results behind:
EC50 (P. falciparum 3D7 [2]),Structure (SMILES),inhibition of growth at 5 µM (P. falciparum 3D7 [2]),also measured
1.02 µM,Cc1ccnc(NC(c2cccc(OCc3ccccc3)c2)c2ccc3cccnc3c2O)c1 (centres unmarked) [MMV000720],97%,EC50 (P. falciparum 3D7 [1]; source GSK (TCMDC ids)): 0.864 µM; EC50 (P. falciparum 3D7 [1]; source StJude (SJ ids)): 1.81 µM
0.407 µM,CCCOCc1cc(CN2CCN(c3cccc(Cl)c3)CC2)c(O)c2ncccc12 [MMV000787],97%,EC50 (P. falciparum 3D7 [1]; source StJude (SJ ids)): 1.1 µM
0.697 µM,CC(C)OCc1cc(CN2CCN(c3cccc(Cl)c3)CC2)c(O)c2ncccc12 [MMV000788],98%,EC50 (P. falciparum 3D7 [1]; source StJude): 0.941 µM
0.428 µM,Cc1ccc(Nc2nc(NCCO)c3ccccc3n2)cc1C [MMV001038],,EC50 (P. falciparum 3D7 [1]; source GNF (GNF-Pf id)): 0.175 µM; EC50 (P. falciparum 3D7 [1]; source StJude (SJ id)): 0.843 µM
0.59 µM,OCCNc1nc(Nc2ccc(Cl)c(Cl)c2)nc2ccccc12 [MMV001041],,EC50 (P. falciparum 3D7 [1]; source GNF): 0.14 µM; EC50 (P. falciparum 3D7 [1]; source StJude): 15 µM; inhibition of growth at 2 µM (P. falciparum 3D7 [2]): 94%
1.26 µM,CC(C)c1ccc(CNCC(O)c2ccccc2)cc1 (centres unmarked) [MMV001049],96%,EC50 (P. falciparum 3D7 [1]; [3]): 1.35 µM
0.206 µM,CSc1ccccc1C(=O)Nc1nc(-c2ccccn2)cs1 [MMV001246],98%,EC50 (P. falciparum 3D7 [1]; source StJude (SJ id)): 6.82 µM
0.538 µM,CCCCc1ccc(NS(=O)(=O)c2cc3c4c(c2)CCN4C(=O)CC3)cc1 [MMV001255],96%,EC50 (P. falciparum 3D7 [1]; source StJude): 15 µM
0.776 µM,c1ccc(CNc2nc(Nc3ccccc3)nc3ccccc23)cc1 [MMV006169],,EC50 (P. falciparum 3D7 [1]; [4]): 0.158 µM; inhibition of growth at 2 µM (P. falciparum 3D7 [2]): 95%
0.142 µM,CN1CCN(c2ccc(Nc3c4ccccc4nc4ccccc34)cc2)CC1 [MMV006172],97%,EC50 (P. falciparum 3D7 [1]; source GNF (GNF-Pf id)): 0.0567 µM; EC50 (P. falciparum 3D7 [1]; source GSK (TCMDC id)): 0.645 µM
0.891 µM,O=C(NCc1ccco1)C1CCN(S(=O)(=O)c2ccc(Cl)cc2)CC1 [MMV006188],94%,EC50 (P. falciparum 3D7 [1]; source GNF): 0.514 µM
0.391 µM,CCN(CC)CCNc1ccnc2cc3ccccc3cc12 [MMV006303],,EC50 (P. falciparum 3D7 [1]; [4]): 0.0286 µM
0.0515 µM,CN(C)c1ccc(C=Cc2nc(=O)c3ccccc3o2)cc1 [MMV006309],96%,EC50 (P. falciparum 3D7 [1]; source GSK (TCMDC id)): 0.0446 µM
0.662 µM,Cc1cc(Nc2cccc(F)c2)nc(NCc2ccccc2)n1 [MMV006319],,EC50 (P. falciparum 3D7 [1]; [3]): 0.0722 µM; inhibition of growth at 2 µM (P. falciparum 3D7 [2]): 97%
0.0782 µM,COc1cc(OC)c(N(C)C(=O)c2cc3c(s2)-c2ccccc2S(=O)(=O)C3)cc1Cl [MMV006427],100%,EC50 (P. falciparum 3D7 [1]; source GNF (GNF-Pf id)): 0.113 µM
0.0328 µM,Cc1cc(NC(=O)C2c3ccccc3C(=O)N(CC(C)C)C2c2cccs2)no1 (centres unmarked) [MMV006429],100%,EC50 (P. falciparum 3D7 [1]; source GNF (GNF-Pf id)): 0.0856 µM
0.304 µM,c1ccc2c(NCCc3c[nH]c4ccccc34)c3ccccc3nc2c1 [MMV006513],97%,EC50 (P. falciparum 3D7 [1]; source GNF (GNF-Pf ids)): 0.086 µM
0.48 µM,CCOc1ccc2nc(C)cc(Nc3ccc(Br)cc3)c2c1 [MMV006522],,EC50 (P. falciparum 3D7 [1]; [4]): 0.114 µM; inhibition of growth at 2 µM (P. falciparum 3D7 [2]): 96%
0.707 µM,CCN(CC)CCNc1ncnc2c1[nH]c1ccc(Br)cc12 [MMV006545],,EC50 (P. falciparum 3D7 [1]; [3]): 0.288 µM
0.7 µM,Clc1ccc2[nH]c3c(NCCCN4CCOCC4)ncnc3c2c1 [MMV006587],,EC50 (P. falciparum 3D7 [1]; [3]): 0.109 µM
4 µM,CN(C)CCNc1cc(-c2ccccc2)nc2ccccc12 [MMV006704],,EC50 (P. falciparum 3D7 [1]; [3]): 0.692 µM; inhibition of growth at 2 µM (P. falciparum 3D7 [2]): 92%
0.683 µM,Cc1cc(N2CCN(C3CCCC3)CC2)n2c(nc3ccccc32)c1C#N [MMV006706],,EC50 (P. falciparum 3D7 [1]; [3]): 0.743 µM
0.512 µM,CCOc1c(Br)cc(C2C(C(=O)OC)=CN(C)C=C2C(=O)OC)cc1OC [MMV006764],96%,EC50 (P. falciparum 3D7 [1]; source GNF (GNF-Pf ids)): 0.292 µM
0.473 µM,CC(C)CCNCC(O)Cn1c2ccccc2c2ccccc21 (centres unmarked) [MMV006787],97%,EC50 (P. falciparum 3D7 [1]; source GNF (GNF-Pf ids)): 0.201 µM
4 µM,CCCCc1c(C)nc2c(OC)cccc2c1O [MMV006820],,EC50 (P. falciparum 3D7 [1]; [3]): 1.69 µM; inhibition of growth at 2 µM (P. falciparum 3D7 [2]): 92%
0.467 µM,COc1ccc(Nc2cc(C)nc(NCc3ccccc3)n2)cc1 [MMV006825],,EC50 (P. falciparum 3D7 [1]; [4]): 0.151 µM
0.251 µM,c1ccc2cc3c(Nc4ccc(N5CCOCC5)cc4)ccnc3cc2c1 [MMV006861],97%,EC50 (P. falciparum 3D7 [1]; source GNF (GNF-Pf id)): 0.672 µM
1.19 µM,CCOC(=O)c1cnc2ccc(Cl)cc2c1NCCCN(C)C [MMV006882],98%,EC50 (P. falciparum 3D7 [1]; source GNF (GNF-Pf ids)): 0.826 µM
